Data published in publication PMC11125126, “Synthesis, Characterisation, and In Vitro Evaluation of Biocompatibility, Antibacterial and Antitumor Activity of Imidazolium Ionic Liquids” (Pharmaceutics, 2024).
Like-named read-outs stand apart in the source and are kept apart here.

Assays:
Escherichia coli = assay: MIC/MBC by broth dilution, pure ILs; assay type: cell-based; conditions: 24 h; for MBC: read-out: MBC; for MIC: read-out: MIC
Source text: (§1) Within the Di3A (Dipartimento di Agricoltura, Alimentazione e Ambiente, University of Catania, Italy) microbial collection, two Gram-negative strains (Escherichia coli and Pseudomonas fluorescens) and one Gram-positive strain (Listeria monocytogenes) were studied in order to define the potential efficacy of ionic liquids in relation to the different structure of the bacterial cell wall.
(§2) For the pure ILs, the minimal inhibitory concentration (MIC) and minimal bactericidal concentration (MBC) were determined in Nutrient Broth (NB, Oxoid, Basingstoke, UK) medium by broth dilution method, according to the Clinical and Laboratory Standards Institute (CLSI).
(§3) All the bacterial strains were individually grown for 24 h at 35 or 27 °C for P. fluorescens, with shaking. After the incubation period, the cells were collected by centrifugation and re-suspended in sterile NB to obtain a stock culture of 10^9 CFU/mL.
(§4) Tubes containing 5 mL of NB with decreasing concentrations of ILs (1000, 500, 250, 125, 50, 25, 12.5, 5 and 0 µg/mL) were inoculated with each bacterial stock culture at a final concentration of 10^6 CFU/mL.
(§5) Tubes were incubated at 35 or 27 °C in an orbital shaker and evaluated for the viable count of E. coli, P. fluorescens, and L. monocytogenes after 24 h by spread-plating 100 µL of each suspension on Nutrient Agar (NA, Oxoid, Basingstoke, UK) incubated for 24–48 h at 35 or 27 °C.
(§6) In this study, MIC and MBC are expressed in both µg/mL and µM to make the comparison with the literature data easy. Each experiment was performed in triplicate.

Listeria monocytogenes = assay: MIC/MBC by broth dilution, pure ILs; assay type: cell-based; conditions: 24 h; for MBC: read-out: MBC; for MIC: read-out: MIC
Source text: as §1, §2, §3, §4, §5, §6

Pseudomonas fluorescens = assay: MIC/MBC by broth dilution, pure ILs; assay type: cell-based; conditions: 24 h; for MBC: read-out: MBC; for MIC: read-out: MIC
Source text: as §1, §2
All the bacterial strains were individually grown for 24 h at 35 or 27 °C for P. fluorescens, with shaking. After the incubation period, the cells were collected by centrifugation and re-suspended in sterile NB to obtain a stock culture of 10^9 CFU/mL. […]
as §5, §6

HDF cells = assay: Indirect cytotoxic test (ISO 10993-5 elution) of IL-loaded PVC, Alamar blue; assay type: cell-based, human; conditions: IL loaded into the PVC matrix at 0.5 and 1 wt%; 24 h elution, 24 h exposure
Protocol: Indirect test: ISO 10993-5, which provides test procedures to evaluate the in vitro cytotoxicity of medical devices, was employed to test biocompatibility. The elution test was conducted by incubating the material in a sterile DMEM solution (extraction vehicle prepared as described earlier) at a ratio of 0.1 g/1.0 mL at 37 °C (following ISO 10993-12 guidelines). After 24 h of elution time, the conditioned media (eluants) were collected, and 200 µL were pipetted into a 96-well plate previously seeded with HDF cells at 80% confluence. The plate was incubated for an additional 24 h (exposure time).
Cell viability was assessed in both cases using the Alamar blue assay, as described earlier. Furthermore, immunofluorescence microscopy was utilised to examine cell-material interactions and their spread using a fluorescent dye. Specifically, HDF cells were labelled with CellTracker^TM Red CMTPX (Invitrogen, Milan, Italy) in a 75 cm^2 cell culture flask, trypsinised, and then seeded onto IL-loaded polymer substrates. The cells were then incubated for 24 h at 37 °C. […]
To assess the possibility of developing substrates for use in various biomedical applications, from drug delivery to tissue engineering or as an antimicrobial coating, the biocompatibility of ionic-liquid-loaded polymeric substrates (ILs) was also evaluated using indirect and direct cytotoxicity assays. […]

[1] = Thermogravimetric analysis (TGA), thermal stability; assay type: physicochemical; conditions: neat ILs; single-step degradation; 10 °C/min, nitrogen
Protocol: Thermal stability and kinetic parameters of the synthesised ILs were investigated using the TA instruments Q500 thermogravimetric analyser (Milan, Italy). A certain amount of sample (4–5 mg) was placed in a platinum pan and heated at 10 °C min^−1 from 40 to 600 °C under a flow of nitrogen (60 mL/min).
Thermogravimetric analyses were performed to evaluate the thermal stability of ILs and PVC/IL blends. Before testing, the samples were subjected to drying cycles in a vacuum stove for 24 h at 50–60 °C, according to the thermal features of ILs, mainly considering their melting points. The ILs C9mimBF4, C10mimBF4, C9mimDMSIP, and C10mimDMSIP, which are liquid at RT, were left to dry at 30 °C for 4–5 h. […] Considering this, the 40–600 °C degradation temperature range was adopted for the subsequent TGA analyses. […] Furthermore, platinum pans and nitrogen as purge gas were used, and the temperature at which 5% weight loss occurred was defined as Tonset, aiming to avoid the decomposition differences due to pan and gas types, as well as the uncertainty from the manual determination of the Tonset tangent point, respectively. Many features can influence the thermal stability of ILs, mainly the coordinating nature of the anion. Indeed, the highly coordinating halide anions (Cl, Br) display a thermal stability lower than that of poor coordinating anions (PF6). The type of cation core influences the thermal stability of ILs, with a decreasing temperature resistance in the following order: pyrrolidinium, imidazolium, pyridinium, and non-cyclic tetra-alkyl ammonium. The increasing alkyl chain length of the imidazolium cation and branching of the alkyl substituents induce a reduction in thermal stability. Furthermore, a decrease in thermal stability is determined by the presence of alkoxylated side chains in methylimidazolium, piperidinium, and pyrrolidinium cations.
As the industrial production of end products usually involves processing methodologies during which undesirable degradation processes could affect materials’ performance, the thermal stability of neat PVC and PVC/IL film blends was analysed. As detailed for TGA analyses of pure ILs, the stability of the PVC/IL blends was determined at heating runs of 10 °C/min from 40 to 600 °C under a nitrogen atmosphere using a platinum pan. These things considered, the temperature at 5% weight loss was considered as Tonset.

[2] = NI = no inhibition at IL maximum concentration used (1000 µM)

CCCCCCCCCCn1cc[n+](C)c1.F[B-](F)(F)F [C10mimBF4]
MBC (Escherichia coli; 10^6 CFU/mL): 155 µg/mL | MIC (Escherichia coli; 10^6 CFU/mL): 77.5 µg/mL | MBC (Escherichia coli; [2]): 500 µM | MIC (Escherichia coli; [2]): 250 µM | MBC (Listeria monocytogenes; 10^6 CFU/mL): 155 µg/mL | MIC (Listeria monocytogenes; 10^6 CFU/mL): 77.5 µg/mL | MBC (Listeria monocytogenes; [2]): 500 µM | MIC (Listeria monocytogenes; [2]): 250 µM | MBC (Pseudomonas fluorescens; 10^6 CFU/mL): 155 µg/mL | MIC (Pseudomonas fluorescens; 10^6 CFU/mL): 38.8 µg/mL | MBC (Pseudomonas fluorescens; [2]): 500 µM | MIC (Pseudomonas fluorescens; [2]): 125 µM | HDF cell viability, indirect cytotoxic test (HDF cells): good cell survival | Td, maximum degradation temperature [1]: 417.2 °C
